Test results: US5128366A, “Pyrrole derivatives” (Shinogi & Co., Ltd., priority 1990, dated 1992)

target: T1, HMG-CoA reductase (Rattus norvegicus, UniProt P51639); assay: HMG-CoA reductase inhibitory effect in rat liver microsome, [3-14C]HMG-CoA, TLC and scintillation counting; assay type: biochemical; details: comparative activity, Mevinolin (sodium salt) as reference drug = 100, sodium salt of the test compound, 37° C., 30 minutes
T1 construct: from tissue; host or cells: liver microsomes of Sprague-Dawley rats fed 2% cholestyramine for 2 weeks
T1 sequence (P51639 1-887): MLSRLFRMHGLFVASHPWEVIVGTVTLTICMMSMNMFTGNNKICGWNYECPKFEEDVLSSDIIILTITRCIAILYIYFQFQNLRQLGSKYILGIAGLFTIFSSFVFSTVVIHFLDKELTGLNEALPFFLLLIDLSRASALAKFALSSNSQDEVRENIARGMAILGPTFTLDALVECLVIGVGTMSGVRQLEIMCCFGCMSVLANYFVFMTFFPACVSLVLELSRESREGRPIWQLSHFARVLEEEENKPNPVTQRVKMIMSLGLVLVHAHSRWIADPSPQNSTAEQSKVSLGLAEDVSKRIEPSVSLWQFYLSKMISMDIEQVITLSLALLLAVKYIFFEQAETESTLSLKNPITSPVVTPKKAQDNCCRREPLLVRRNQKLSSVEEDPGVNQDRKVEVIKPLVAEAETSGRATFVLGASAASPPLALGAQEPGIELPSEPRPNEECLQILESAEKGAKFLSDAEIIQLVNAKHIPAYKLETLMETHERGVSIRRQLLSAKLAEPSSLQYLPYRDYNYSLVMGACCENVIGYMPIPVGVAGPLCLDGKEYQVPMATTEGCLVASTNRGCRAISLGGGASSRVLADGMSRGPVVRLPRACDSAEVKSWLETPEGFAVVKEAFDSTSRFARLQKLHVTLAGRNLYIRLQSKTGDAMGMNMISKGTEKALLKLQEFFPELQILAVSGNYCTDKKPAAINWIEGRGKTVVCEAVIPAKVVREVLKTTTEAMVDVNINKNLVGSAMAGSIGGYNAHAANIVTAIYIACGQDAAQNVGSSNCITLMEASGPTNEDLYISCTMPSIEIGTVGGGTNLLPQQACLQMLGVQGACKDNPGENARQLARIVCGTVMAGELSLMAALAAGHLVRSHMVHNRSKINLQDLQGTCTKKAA
Description: (1) Preparation of Rat Liver Microsome
Sprague-Dawley rats, which were in free access to ordinary diets containing 2% cholestyramine and water for 2 weeks, were used for the preparation of rat liver microsome, which were then purified according to the manner by Kuroda et al., Biochem. Biophys. Act, 486, 70 (1977). The microsomal fraction obtained by centrifugation at 105000×g was washed once with a buffered solution containing 15 mM nicotinamide and 2 mM magnesium chloride (in a 100 mM potassium phosphate buffer, pH 7.4). It was homogenized with a buffer containing nicotinamide and magnesium chloride at the same weight as the liver employed. The thus obtained homogenate was cooled down to and kept at -80° C.
(2) Measurement of the HMG-CoA Reductase Inhibitory Activities
The rat liver microsome (100 μl), which was preserved at -80° C., was […] at 0° C. and diluted with 0.7 ml of a cold potassium phosphate buffer (100 mM, pH 7.4 ). This was mixed with 0.8 ml of 50 mM EDTA (buffered with the aforementioned potassium phosphate buffer) and 0.4 ml of 100 mM dithiothreitol solution (buffered with the aforementioned potassium phosphate buffer), and the mixture was kept at 0° C. The microsome solution, 1.675 ml, was mixed with 670 μl of 25 mM NADPH (buffered with the aforementioned potassium phosphate buffer), and the solution was added to the solution of 0.5 mM [3^-14 C]HMG-CoA (3 mCi/mmol). Potassium phosphate buffer of sodium salt of the test compound 5 μl is added to the mixture of microsome and HMG-CoA 45 μl, and the resulting mixture was incubated at 37° C. for 30 minutes and cooled. After termination of the reaction by addition of 10 μl of 2N-HCl, the mixture was incubated again at 37° C. for 15 minutes and then 30 μl of this mixture was applied to thin-layer chromatography with silica gel of 0.5 mm in thickness (Merck AG, Art 5744). The chromatograms were developed in toluene/acetone (1/1) and the sections, whose Rf value was between 0.45 to 0.6, were scraped. The obtained products were put into a vial containing 8 ml of scintillator to measure specific radio-activity with a scintillation counter.

| SMILES | HMG-CoA reductase inhibitory activities |
| --- | --- |
| Cc1c(-c2ccc(F)cc2)c(/C=C/[C@@H](O)C[C@@H](O)CC(=O)O)c(C(C)C)n1S(=O)(=O)Cc1ccccc1 (relative stereo) [Ia-19, 7-[4-(4-Fluorophenyl)-2-isopropyl-5-methyl-(1-benzylsulfonyl)-pyrrol-3-yl]-(3R*,5S*)-dihydroxy-(E)-6-heptenate] | 105 |
| CC[C@H](C)C(=O)O[C@H]1C[C@@H](C)C=C2C=C[C@H](C)[C@H](CC[C@@H](O)C[C@@H](O)CC(=O)O)[C@H]21 [Mevinolin Na, Mevinolin, reference compound] | 100 |
| CC(C)c1c(/C=C/[C@@H](O)C[C@@H](O)CC(=O)O)c(-c2ccc(F)cc2)c(-c2ccc(F)cc2)n1S(C)(=O)=O (relative stereo) [Ia-17, 7-.upsilon.4,5-Di-(4-fluorophenyl)-2-isopropyl-1-(methylsulfonyl)-pyrrol-3-yl]-(3R*,5S*)-dihydroxy-(E)-6-heptenoic acid] | 293 |

Other lines, results leading:

| HMG-CoA reductase inhibitory activities | SMILES |
| --- | --- |
| 418 | Cc1c(-c2ccc(F)cc2)c(/C=C/[C@@H](O)C[C@@H](O)CC(=O)O)c(C(C)C)n1S(C)(=O)=O [Id-2, (+) Sodium 7-[4-(4-fluorophenyl)-2-isopropyl-5-methyl-(1-methylsulfonyl)pyrrol-3-yl]-(3R,5S)-dihydroxy-(E)-6-heptenate] |
| 263 | CC(C)c1c(/C=C/[C@@H](O)C[C@@H](O)CC(=O)O)c(-c2ccc(F)cc2)cn1S(C)(=O)=O (relative stereo) [Ia-10] |
| 228 | CCS(=O)(=O)n1c(C)c(-c2ccc(F)cc2)c(/C=C/[C@@H](O)C[C@@H](O)CC(=O)O)c1C(C)C (relative stereo) [Ia-18, 7-[4-(4-Fluorophenyl)-2-isopropyl-5-methyl-(1-ethylsulfonyl)pyrrol-3-yl]-(3R*,5S*)-dihydroxy-(E)-6-heptenate] |
